Assay results reported in patent publication EP3448864B1, “SILSE[…] TRANSPORT COMPOUNDS” (Technische Universität Darmstadt, priority 2016, dated 2017).

Experiments:
Type in all cases: cell-based
HeLa-Zellen [1] = experiment: Cell proliferation test (MTT) after short incubation; details: free drug in PBS pH 5,5, different concentrations, 1, 2 and 3 h incubation, 1x10^4 HeLa cells, MTT after 18 h
Excerpt: Um die Toxizität von Doxorubicin auf HeLa-Zellen zu untersuchen, wurde ein Inkubationszeitabhängiger Test mit dem freien Wirkstoff durchgeführt. Dafür wurde Doxorubicin in PBS bei pH 5,5 gelöst und bei unterschiedlichen Konzentrationen für 1 Stunde, 2 Stunden und 3 Stunden mit 1x10^4 HeLa-Zellen inkubiert. Nach dem Inkubieren wurden die Zellen mit DMEM gewaschen und nach 18 Stunden ein Zellproliferationstest (MTT) durchgeführt.
Danach wurde die oben gezeigte erfindungsgemäße Verbindung mit Doxorubicin als Cargo-Molekülstruktur getestet. Die Verbindung wurde - genau wie die Kontrollen (freies Doxorubicin, unbehandelte Zellen) -je dreifach bei gleicher Konzentration für eine Stunde inkubiert. Um die Disulfidbrücke zu schützen wurden die Zellen mit hoch-glucosehaltigem DMEM ohne Methionin, Cysteine und Glutamine gewaschen. Nach der Inkubation wurden die Zellen mit DMEM gewaschen und nach 18 Stunden wurde ein MTT-Assay durchgeführt. […] Die Ergebnisse sind in FIG.6 zusammen gefasst.

HeLa-Zellen [2] = experiment: Flow cytometry quantification of cellular uptake; details: for Aufnahme in Zellen: summary statement in the description, citing FIG.1A/1B, 2, 3, 4
Excerpt: Um die Aufnahme der Verbindungen in eukaryotische Zellen zu quantifizieren, wurden umfangreiche Durchflusszytometrieuntersuchungen mit den Verbindungen 2 bis 7 (Verbindungen 2 und 5 sind Vergleichsbeispiele) durchgeführt. Ferner wurden auch die aus dem Stand der Technik bekannten zellpenetrierenden Peptide Tat 10, Penetratin 11, Heptaarginin 12 und Decaarginin 13 untersucht. Zu diesem Zweck wurden auch die Peptide mit TAMRA markiert.
Zunächst wurden HeLa-Zellen mit den zu untersuchenden Substanzen bei einer Konzentration von 20 µM in serumfreiem DMEM bei 37°C für 10 Minuten inkubiert. Danach wurden die Zellen dreimal mit PBS gewaschen und nach einem Trypsinverdau nochmals mit PBS gewaschen. Danach wurden die Untersuchungen durchgeführt. […] Die Ergebnisse sind in FIG.2 zusammen gefasst.

HeLa-Zellen [3] = experiment: Study of the uptake mechanism (temperature, concentration, serum) by fluorescence
Experimental: Es wurden weitere Fluoreszenzuntersuchungen an Verbindung 4 durchgeführt. […] Daraus kann angenommen werden, dass der Mechanismus energieunabhängig verläuft.
Ferner wurden HeLa-Zellen mit der Verbindung 4 bei unterschiedlichen Konzentrationen inkubiert. Schon bei 80 nM wurde eine Aufnahme in die Zellen beobachtet. Bei 1 µM wurde der größte Effekt beobachtet.
Darüber hinaus wurde untersucht, ob Serum die Aufnahme in die Zellen behindern kann. Dafür wurde die Inkubationslösung mit 2% fetalem Kälberserum versetzt.

[4] = HeLa cells incubated at different concentrations

COc1cccc2c1C(=O)c1c(O)c3c(c(O)c1C2=O)C[C@@](O)(C(=O)CO)C[C@@H]3O[C@H]1C[C@H](N)[C@H](O)[C@H](C)O1 [Doxorubicin, reference compound]
Toxizität auf HeLa-Zellen (HeLa-Zellen [1]): mit längerer Inkubation nahm die Toxizität zu

TAMRA-hepta-4-guanidinobuttersäure-COSS-amid [Verbindung 7]
Aufnahme in Zellen (HeLa-Zellen [2]): besonders ausgeprägte Aufnahme in Zellen

TAMRA-hepta-4-trimethylammoniumbuttersäure-COSS-amid [Verbindung 6]
Aufnahme in Zellen (HeLa-Zellen [2]): besonders ausgeprägte Aufnahme in Zellen

TAMRA-heptaguanidin-COSS [Verbindung 4]
Aufnahme stärker ausgeprägt als die des Tat-Peptids (HeLa-Zellen [2]; 20 µM, serum-free DMEM, 37°C, 10 min, fold versus TAMRA-labelled Tat peptide): 155 mal
Aufnahme (HeLa-Zellen [2]; 20 µM, serum-free DMEM, 37°C, 10 min, ranking among compounds 2 to 7 and TAMRA-labelled peptides 10 to 13, FIG.2): beste Aufnahme
Aufnahme in Zellen (HeLa-Zellen [2]): besonders ausgeprägte Aufnahme in Zellen
Konzentration, bei der der größte Effekt beobachtet wurde (HeLa-Zellen [3]; [4]): 1 µM
Konzentration, bei der schon eine Aufnahme in die Zellen beobachtet wurde (HeLa-Zellen [3]; [4]): 80 nM
Aufnahme bei den unterschiedlichen Temperaturen (HeLa-Zellen [3]; incubation at 37°C versus 4°C): kaum unterschiedlich
Einfluss von Serum auf die Aufnahme in die Zellen (HeLa-Zellen [3]; incubation solution with 2% fetal calf serum versus serum-free tests): kein Unterschied

TAMRA-heptatrimethylammonium-COSS [Verbindung 3]
Aufnahme in Zellen (HeLa-Zellen [2]): besonders ausgeprägte Aufnahme in Zellen
